Test results published in publication PMC3769177 (Bioorganic & medicinal chemistry letters, 2013).

Test system: RD (embryonal) rhabdomyosarcoma cell line
Test: CellTiter-Glo Luminescent Cell Viability Assay, RD cells
Type: cell-based
Conditions: 48 hours

`CN1CCN(CCOc2cc(OC3CCOCC3)c3c(Nc4c(Cl)ccc5c4OCO5)ncnc3c2)CC1` [Saracatinib] was tested, and the “IC50[RD], inhibition of cell survival” value was “did not reach the IC50”.
